Results reported in PubChem BioAssay (NCI).
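All cell lines were grown in 96-well plates and treated with compound for 48 hours. TGI: concentration producing complete growth inhibition.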

Key:
Test in all cases: NCI tumour cell line growth inhibition, 48 h
CAKI-1 renal = system: CAKI-1 renal
KM12 colon = system: KM12 colon
UO-31 renal = system: UO-31 renal
RXF 393 renal = system: RXF 393 renal
UACC-62 melanoma = system: UACC-62 melanoma
NCI-H226 lung = system: NCI-H226 lung
K-562 leukemia = system: K-562 leukemia
M14 melanoma = system: M14 melanoma
COLO 205 colon = system: COLO 205 colon
NCI/ADR-RES ovarian = system: NCI/ADR-RES ovarian
SK-OV-3 ovarian = system: SK-OV-3 ovarian
DU-145 prostate = system: DU-145 prostate
UACC-257 melanoma = system: UACC-257 melanoma
HOP-92 NSCLC = system: HOP-92 NSCLC
SF-295 CNS = system: SF-295 CNS
PC-3 prostate = system: PC-3 prostate
OVCAR-8 ovarian = system: OVCAR-8 ovarian
NCI-H460 lung = system: NCI-H460 lung
OVCAR-4 ovarian = system: OVCAR-4 ovarian
SF-268 CNS = system: SF-268 CNS
RPMI-8226 leukemia = system: RPMI-8226 leukemia
SK-MEL-28 melanoma = system: SK-MEL-28 melanoma
HCT-116 colon = system: HCT-116 colon
MDA-MB-231 breast = system: MDA-MB-231 breast
LOX IMVI melanoma = system: LOX IMVI melanoma
MALME-3M melanoma = system: MALME-3M melanoma
U251 CNS = system: U251 CNS
SK-MEL-2 melanoma = system: SK-MEL-2 melanoma
SK-MEL-5 melanoma = system: SK-MEL-5 melanoma
786-0 renal = system: 786-0 renal
CCRF-CEM leukemia = system: CCRF-CEM leukemia
SF-539 CNS = system: SF-539 CNS
MCF7 breast = system: MCF7 breast
SW-620 colon = system: SW-620 colon
HL-60(TB) leukemia = system: HL-60(TB) leukemia
MOLT-4 leukemia = system: MOLT-4 leukemia
HS 578T breast = system: HS 578T breast
ACHN renal = system: ACHN renal
NCI-H522 lung = system: NCI-H522 lung
SNB-19 CNS = system: SNB-19 CNS
SNB-75 CNS = system: SNB-75 CNS
MDA-N = system: MDA-N
HCC-2998 colon = system: HCC-2998 colon
A549 NSCLC = system: A549 NSCLC
TK-10 renal = system: TK-10 renal
SR leukemia = system: SR leukemia
EKVX NSCLC = system: EKVX NSCLC
IGROV1 ovarian = system: IGROV1 ovarian
HCT-15 colon = system: HCT-15 colon
BT-549 breast = system: BT-549 breast
OVCAR-5 ovarian = system: OVCAR-5 ovarian
HT29 colon = system: HT29 colon
SN12C renal = system: SN12C renal
HOP-62 NSCLC = system: HOP-62 NSCLC
T-47D breast = system: T-47D breast
MDA-MB-435 = system: MDA-MB-435
NCI-H23 lung = system: NCI-H23 lung
A498 renal = system: A498 renal
OVCAR-3 ovarian = system: OVCAR-3 ovarian

SMILES: N#C/C(=C\c1ccc(Cl)cc1)c1nc(-c2cc3ccccc3oc2=O)cs1
- TGI (CAKI-1 renal): > 100 µM
- TGI (KM12 colon): > 100 µM
- TGI (UO-31 renal): > 100 µM
- TGI (RXF 393 renal): > 100 µM
- TGI (UACC-62 melanoma): 85.3 µM
- TGI (NCI-H226 lung): > 100 µM
- TGI (K-562 leukemia): > 100 µM
- TGI (M14 melanoma): > 100 µM
- TGI (COLO 205 colon): > 100 µM
- TGI (NCI/ADR-RES ovarian): > 100 µM
- TGI (SK-OV-3 ovarian): > 100 µM
- TGI (DU-145 prostate): > 100 µM
- TGI (UACC-257 melanoma): > 100 µM
- TGI (HOP-92 NSCLC): 51.3 µM
- TGI (SF-295 CNS): > 100 µM
- TGI (PC-3 prostate): > 100 µM
- TGI (OVCAR-8 ovarian): > 100 µM
- TGI (NCI-H460 lung): > 100 µM
- TGI (OVCAR-4 ovarian): > 100 µM
- TGI (SF-268 CNS): > 100 µM
- TGI (RPMI-8226 leukemia): > 100 µM
- TGI (SK-MEL-28 melanoma): > 100 µM
- TGI (HCT-116 colon): > 100 µM
- TGI (MDA-MB-231 breast): 47.8 µM
- TGI (LOX IMVI melanoma): > 100 µM
- TGI (MALME-3M melanoma): > 100 µM
- TGI (U251 CNS): 93.3 µM
- TGI (SK-MEL-2 melanoma): > 100 µM
- TGI (SK-MEL-5 melanoma): > 100 µM
- TGI (786-0 renal): > 100 µM
- TGI (CCRF-CEM leukemia): > 100 µM
- TGI (SF-539 CNS): > 100 µM
- TGI (MCF7 breast): > 100 µM
- TGI (SW-620 colon): > 100 µM
- TGI (HL-60(TB) leukemia): > 100 µM
- TGI (MOLT-4 leukemia): > 100 µM
- TGI (HS 578T breast): 37.7 µM
- TGI (ACHN renal): > 100 µM
- TGI (NCI-H522 lung): 50.1 µM
- TGI (SNB-19 CNS): > 100 µM
- TGI (SNB-75 CNS): > 100 µM
- TGI (MDA-N): > 100 µM
- TGI (HCC-2998 colon): > 100 µM
- TGI (A549 NSCLC): > 100 µM
- TGI (TK-10 renal): 94.6 µM
- TGI (SR leukemia): > 100 µM
- TGI (EKVX NSCLC): > 100 µM
- TGI (IGROV1 ovarian): > 100 µM
- TGI (HCT-15 colon): > 100 µM
- TGI (BT-549 breast): 31.8 µM
- TGI (OVCAR-5 ovarian): > 100 µM
- TGI (HT29 colon): > 100 µM
- TGI (SN12C renal): > 100 µM
- TGI (HOP-62 NSCLC): 58.2 µM
- TGI (T-47D breast): > 100 µM
- TGI (MDA-MB-435): > 100 µM

SMILES: O=C(/C=C/c1ccc2c(c1)OCO2)NCc1ccco1
- TGI (CAKI-1 renal): > 100 µM
- TGI (KM12 colon): > 100 µM
- TGI (UO-31 renal): > 100 µM
- TGI (UACC-62 melanoma): > 100 µM
- TGI (NCI-H226 lung): > 100 µM
- TGI (K-562 leukemia): > 100 µM
- TGI (M14 melanoma): > 100 µM
- TGI (COLO 205 colon): > 100 µM
- TGI (NCI/ADR-RES ovarian): > 100 µM
- TGI (SK-OV-3 ovarian): > 100 µM
- TGI (DU-145 prostate): > 100 µM
- TGI (UACC-257 melanoma): > 100 µM
- TGI (HOP-92 NSCLC): > 100 µM
- TGI (SF-295 CNS): > 100 µM
- TGI (PC-3 prostate): > 100 µM
- TGI (OVCAR-8 ovarian): > 100 µM
- TGI (NCI-H460 lung): > 100 µM
- TGI (OVCAR-4 ovarian): > 100 µM
- TGI (NCI-H23 lung): > 100 µM
- TGI (A498 renal): > 100 µM
- TGI (SK-MEL-28 melanoma): > 100 µM
- TGI (HCT-116 colon): > 100 µM
- TGI (MDA-MB-231 breast): > 100 µM
- TGI (LOX IMVI melanoma): > 100 µM
- TGI (MALME-3M melanoma): > 100 µM
- TGI (U251 CNS): > 100 µM
- TGI (SK-MEL-2 melanoma): > 100 µM
- TGI (SK-MEL-5 melanoma): > 100 µM
- TGI (786-0 renal): > 100 µM
- TGI (CCRF-CEM leukemia): > 100 µM
- TGI (SF-539 CNS): > 100 µM
- TGI (MCF7 breast): > 100 µM
- TGI (SW-620 colon): > 100 µM
- TGI (MOLT-4 leukemia): > 100 µM
- TGI (HS 578T breast): > 100 µM
- TGI (ACHN renal): > 100 µM
- TGI (SNB-19 CNS): > 100 µM
- TGI (SNB-75 CNS): > 100 µM
- TGI (MDA-N): > 100 µM
- TGI (HCC-2998 colon): > 100 µM
- TGI (A549 NSCLC): > 100 µM
- TGI (TK-10 renal): > 100 µM
- TGI (SR leukemia): > 100 µM
- TGI (EKVX NSCLC): > 100 µM
- TGI (IGROV1 ovarian): > 100 µM
- TGI (HCT-15 colon): > 100 µM
- TGI (BT-549 breast): > 100 µM
- TGI (OVCAR-5 ovarian): > 100 µM
- TGI (HT29 colon): > 100 µM
- TGI (SN12C renal): > 100 µM
- TGI (HOP-62 NSCLC): > 100 µM
- TGI (T-47D breast): 80.9 µM
- TGI (MDA-MB-435): > 100 µM
- TGI (OVCAR-3 ovarian): > 100 µM

SMILES: Cc1noc(NS(=O)(=O)c2ccc(NC(=O)c3ccc4[nH]c5ccccc5c(=O)c4c3)cc2)c1C
- TGI (CAKI-1 renal): > 100 µM
- TGI (KM12 colon): > 100 µM
- TGI (UO-31 renal): > 100 µM
- TGI (RXF 393 renal): 98 µM
- TGI (UACC-62 melanoma): > 100 µM
- TGI (NCI-H226 lung): > 100 µM
- TGI (K-562 leukemia): 81.5 µM
- TGI (M14 melanoma): > 100 µM
- TGI (COLO 205 colon): > 100 µM
- TGI (NCI/ADR-RES ovarian): > 100 µM
- TGI (SK-OV-3 ovarian): > 100 µM
- TGI (DU-145 prostate): > 100 µM
- TGI (UACC-257 melanoma): > 100 µM
- TGI (HOP-92 NSCLC): > 100 µM
- TGI (SF-295 CNS): > 100 µM
- TGI (PC-3 prostate): > 100 µM
- TGI (OVCAR-8 ovarian): > 100 µM
- TGI (NCI-H460 lung): > 100 µM
- TGI (OVCAR-4 ovarian): > 100 µM
- TGI (SF-268 CNS): > 100 µM
- TGI (NCI-H23 lung): > 100 µM
- TGI (RPMI-8226 leukemia): > 100 µM
- TGI (SK-MEL-28 melanoma): > 100 µM
- TGI (HCT-116 colon): > 100 µM
- TGI (MDA-MB-231 breast): > 100 µM
- TGI (LOX IMVI melanoma): 56.5 µM
- TGI (MALME-3M melanoma): > 100 µM
- TGI (U251 CNS): > 100 µM
- TGI (SK-MEL-2 melanoma): > 100 µM
- TGI (SK-MEL-5 melanoma): > 100 µM
- TGI (786-0 renal): > 100 µM
- TGI (CCRF-CEM leukemia): 67.3 µM
- TGI (SF-539 CNS): 62.2 µM
- TGI (MCF7 breast): 66.5 µM
- TGI (SW-620 colon): > 100 µM
- TGI (HL-60(TB) leukemia): 66.8 µM
- TGI (MOLT-4 leukemia): 67.6 µM
- TGI (HS 578T breast): > 100 µM
- TGI (ACHN renal): > 100 µM
- TGI (NCI-H522 lung): 76.2 µM
- TGI (SNB-19 CNS): > 100 µM
- TGI (SNB-75 CNS): > 100 µM
- TGI (MDA-N): > 100 µM
- TGI (HCC-2998 colon): 65.2 µM
- TGI (A549 NSCLC): > 100 µM
- TGI (TK-10 renal): > 100 µM
- TGI (SR leukemia): 85.2 µM
- TGI (EKVX NSCLC): > 100 µM
- TGI (IGROV1 ovarian): > 100 µM
- TGI (HCT-15 colon): > 100 µM
- TGI (BT-549 breast): > 100 µM
- TGI (OVCAR-5 ovarian): > 100 µM
- TGI (HT29 colon): > 100 µM
- TGI (SN12C renal): > 100 µM
- TGI (HOP-62 NSCLC): > 100 µM
- TGI (T-47D breast): 63.2 µM
- TGI (MDA-MB-435): > 100 µM
- TGI (OVCAR-3 ovarian): 77.8 µM
